The values below come from US9126999B2, “Tetrahydropyrazolopyrimidine compounds” (EISAI R&D MANAGEMENT CO., LTD., priority 2012, dated 2015).

As a reminder, the IC50 is the concentration that inhibits the measured activity by half. Low values mean higher potency, high ones lower potency.

Bounds are passed on as bounds.

One experiment deals with T1, Human TLR9 (Homo sapiens, UniProt Q9NR96).
T1 sequence (Q9NR96 26-1032): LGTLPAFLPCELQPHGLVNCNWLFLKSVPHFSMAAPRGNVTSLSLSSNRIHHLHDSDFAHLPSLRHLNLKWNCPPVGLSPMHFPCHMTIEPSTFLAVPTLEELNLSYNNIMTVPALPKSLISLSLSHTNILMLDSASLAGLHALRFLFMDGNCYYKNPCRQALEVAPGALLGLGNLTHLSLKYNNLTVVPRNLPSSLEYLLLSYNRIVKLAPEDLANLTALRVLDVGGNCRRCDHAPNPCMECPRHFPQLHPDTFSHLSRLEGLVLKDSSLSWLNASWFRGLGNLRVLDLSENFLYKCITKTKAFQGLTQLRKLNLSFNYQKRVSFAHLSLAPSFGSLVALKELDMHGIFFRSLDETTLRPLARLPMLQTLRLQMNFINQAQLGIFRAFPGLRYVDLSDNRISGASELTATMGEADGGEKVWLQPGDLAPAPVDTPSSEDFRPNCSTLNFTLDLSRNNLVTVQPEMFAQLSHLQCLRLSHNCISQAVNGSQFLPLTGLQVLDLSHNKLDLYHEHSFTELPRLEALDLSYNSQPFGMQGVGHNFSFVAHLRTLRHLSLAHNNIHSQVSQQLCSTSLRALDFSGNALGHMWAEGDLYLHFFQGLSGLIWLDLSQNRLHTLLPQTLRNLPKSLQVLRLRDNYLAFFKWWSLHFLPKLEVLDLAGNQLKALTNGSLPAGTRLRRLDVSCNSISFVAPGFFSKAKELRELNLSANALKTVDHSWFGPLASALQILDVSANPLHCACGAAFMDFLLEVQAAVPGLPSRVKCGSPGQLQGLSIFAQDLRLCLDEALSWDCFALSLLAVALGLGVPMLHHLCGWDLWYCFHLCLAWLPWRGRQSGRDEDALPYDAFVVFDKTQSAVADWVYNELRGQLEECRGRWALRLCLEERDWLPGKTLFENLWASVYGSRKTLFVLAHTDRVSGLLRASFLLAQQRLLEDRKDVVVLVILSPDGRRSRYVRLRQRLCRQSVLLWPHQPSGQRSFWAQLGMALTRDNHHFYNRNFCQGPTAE
Put plainly: Human PBMC cell-based assay, CpG-ODN stimulus, IL-6 ELISA. More on the design: endogenous in cells; host or cells: primary human PBMC from healthy donor blood. The settings on record: Hu PBMC; ligand CpG-ODN; analyte IL-6. The protocol: (§1) Human peripheral blood mononuclear cells (PBMC) were isolated from freshly-drawn heparinized (10 USP units/ml, Hospira, Lakeforest, Ill.) healthy donor whole blood by density gradient (Histopaque® 1077, Sigma, Inc., St. Louis, Mo.). Briefly, 25 ml blood was diluted with 15 ml PBS (without Ca^2+, Mg^2+) in a 50 ml conical tube, and 12 ml Histopaque was underlaid using a spinal needle. Tubes were centrifuged for 45 minutes at 1200 rpm (350×g), and PBMC were collected from the buffy coat. Cells were then washed twice in PBS, and red blood cells were lysed by suspension in 5 ml ammonium chloride solution (1× Red Blood Cell Lysis Buffer, eBioscience) for 5 minutes at room temperature. […]
(§2) Antagonist compounds solubilized and serial diluted in 100% DMSO were added in triplicate to cells to yield a final concentration of 0.1% DMSO (v/v). […] Cell culture supernatants were collected, and levels of various human cytokines were assessed as indicated by standard ELISA procedure according to the manufacturer's recommended protocol (BD Biosciences, Inc., San Diego, Calif.).
(In an ELISA, binding on a coated surface is turned into a signal by an enzyme label.)

The subject of a further experiment is T2, Human TLR7/8.
T2 construct: IC50; other: Hu PBMC; ligand RNA-Ig; analyte IL-6; analyte TNFα; ligand R848; IC50 against the RNA-Ig TLR7/8 stimulus; cytokine responses to RNA-Ig complexes in vitro; potency against the RNA-Ig TLR7/8 stimulus versus HCQ
The experiment can be described thus: Human PBMC cell-based assay, R848 stimulus, IL-6 ELISA. The settings on record: Hu PBMC; ligand R848; analyte IL-6. The protocol:
as §1, §2

The target of the next experiment is T3, Human TLR1/2 (Homo sapiens, UniProt O60603+Q15399).
T3 construct: endogenous in cells; host or cells: primary human PBMC from healthy donor blood
T3 sequence (Q15399 25-786): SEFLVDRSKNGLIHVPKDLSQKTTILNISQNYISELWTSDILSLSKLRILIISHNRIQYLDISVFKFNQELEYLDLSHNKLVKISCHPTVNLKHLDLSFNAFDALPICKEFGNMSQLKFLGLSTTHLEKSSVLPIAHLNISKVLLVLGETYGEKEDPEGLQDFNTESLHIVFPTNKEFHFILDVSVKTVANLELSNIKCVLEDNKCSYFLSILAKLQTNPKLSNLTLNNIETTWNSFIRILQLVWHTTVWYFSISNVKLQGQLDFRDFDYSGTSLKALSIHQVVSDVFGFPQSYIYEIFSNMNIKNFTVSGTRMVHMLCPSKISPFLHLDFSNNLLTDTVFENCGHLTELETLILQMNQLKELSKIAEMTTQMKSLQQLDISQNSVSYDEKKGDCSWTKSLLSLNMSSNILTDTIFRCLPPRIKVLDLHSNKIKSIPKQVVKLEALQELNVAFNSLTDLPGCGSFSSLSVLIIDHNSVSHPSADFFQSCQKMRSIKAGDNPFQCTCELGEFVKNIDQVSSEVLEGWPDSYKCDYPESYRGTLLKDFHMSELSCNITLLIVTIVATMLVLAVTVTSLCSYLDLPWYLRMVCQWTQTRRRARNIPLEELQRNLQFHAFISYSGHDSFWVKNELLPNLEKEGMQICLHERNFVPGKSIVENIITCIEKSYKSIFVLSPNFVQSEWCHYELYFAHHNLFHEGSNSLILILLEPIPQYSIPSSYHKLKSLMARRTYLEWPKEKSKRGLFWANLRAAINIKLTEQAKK
T3 sequence (O60603 19-784 limits assumed): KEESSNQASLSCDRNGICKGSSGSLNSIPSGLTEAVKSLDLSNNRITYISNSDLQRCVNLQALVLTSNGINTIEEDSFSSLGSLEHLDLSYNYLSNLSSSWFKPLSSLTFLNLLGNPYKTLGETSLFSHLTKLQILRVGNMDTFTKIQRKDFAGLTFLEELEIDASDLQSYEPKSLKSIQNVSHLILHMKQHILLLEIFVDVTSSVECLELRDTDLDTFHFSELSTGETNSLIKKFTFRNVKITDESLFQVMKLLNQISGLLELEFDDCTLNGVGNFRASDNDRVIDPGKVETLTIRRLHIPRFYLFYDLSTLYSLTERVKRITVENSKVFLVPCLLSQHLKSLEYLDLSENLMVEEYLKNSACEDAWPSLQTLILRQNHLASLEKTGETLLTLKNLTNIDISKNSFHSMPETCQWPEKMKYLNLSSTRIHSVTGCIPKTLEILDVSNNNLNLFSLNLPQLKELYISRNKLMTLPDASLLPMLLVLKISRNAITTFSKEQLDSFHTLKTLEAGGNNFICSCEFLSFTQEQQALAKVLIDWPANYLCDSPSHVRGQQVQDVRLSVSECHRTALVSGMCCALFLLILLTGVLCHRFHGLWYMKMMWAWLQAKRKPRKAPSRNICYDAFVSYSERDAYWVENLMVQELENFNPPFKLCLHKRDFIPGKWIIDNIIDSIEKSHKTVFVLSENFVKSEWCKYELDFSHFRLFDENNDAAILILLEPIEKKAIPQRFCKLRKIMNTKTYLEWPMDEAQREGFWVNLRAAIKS
The experiment can be described thus: Human PBMC cell-based assay, Pam3CSK4 stimulus, IL-6 ELISA. The settings on record: Hu PBMC; ligand Pam3CSK4; analyte IL-6. The protocol:
as §1, §2

Take `COc1ccc([C@@H]2C[C@H](C(F)(F)F)n3nc(-c4ccc(C(=O)N5CCNCC5)cc4)cc3N2)cc1OC` [ER-892887, (4-((5S,7R)-5-(3,4-dimethoxyphenyl)-7-(trifluoromethyl)-4,5,6,7-tetrahydropyrazolo[1,5-a]pyrimidin-2-yl)phenyl)(piperazin-1-yl)methanone]: the figures for the IC50 at Human TLR9, with Human TLR7/8 and at Human TLR1/2 were over 10 µM, 0.016 µM and over 10 µM, respectively.
